ChEMBL document CHEMBL6087419, “Structural insights into tryptamine psychedelics: The role of hydroxyl indole ring site in 5-HT2A receptor activation and psychedelic-like activity” (Eur J Med Chem, 2025)
Calls of active or inactive are those of the source. The calls are words filed in the database; no cut-off is given here.

Key:
Mus musculus [1] = experiment: Psychedelic like activity in male BALB/c mouse assessed as induction of head-twitch responses at 1 mg/kg, ip measured after 30 mins by video recording analysis; format: functional, organism-based
Mus musculus [2] = experiment: Psychedelic like activity in male BALB/c mouse assessed as induction of head-twitch responses administered intraperitoneally and measured after 30 mins by video recording analysis; format: functional; details: 0.5 h, route ip
Mus musculus [3] = experiment: Psychedelic like activity in male BALB/c mouse assessed as induction of head-twitch responses at 3 to 10 mg/kg, ip measured after 30 mins by video recording analysis; format: functional, organism-based; details: dose 3-10 mg/kg

Compound | Activity (Mus musculus [1]) | ED50 (Mus musculus [2]) | Activity (Mus musculus [3])
CN(C)CCc1c[nH]c2c(O)cccc12 | inactive | – | –
CN(C)CCc1c[nH]c2cc(O)ccc12 | inactive | – | –
CN(C)CCc1c[nH]c2ccc(O)cc12 | Active | – | –
CN(C)CCc1c[nH]c2cccc(O)c12 [PSILOCIN] | Active | 0.86 mg/kg | inactive
